Where “and” joins values, the source holds several entries; their conditions need not be identical. Identical values can stand only once.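 Cultured in 96-well plates, cells were exposed to test compound for 48 hours across five concentrations. GI50 = concentration required for 50% inhibition of growth. TGI: total growth inhibition.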
Experiments:
Assay in all cases: NCI tumour cell line growth inhibition, 48 h
[1] = system: XF 498 CNS
[2] = system: M19-MEL melanoma
[3] = system: LXFL 529 NSCLC
[4] = system: MCF7 breast
[5] = system: MDA-MB-231 breast
[6] = system: MDA-N
[7] = system: PC-3 prostate
[8] = system: P388/ADR leukemia
[9] = system: P388 leukemia
[10] = system: SN12K1 renal

Work on CC1C=CC(=O)C(n2cc(F)c(=O)[nH]c2=O)O1 (configuration not stated) yielded a TGI [1] of 28.7 µM and a TGI [2] of 36.3 µM.

CC12CCC[C@@](C)(C(=O)OC3OC(CO)C(O)C(O)C3O)[C@H]1CCC13CC4CC(OC4(CO)[C@H]1O)[C@@H]23 (some centres not stated) was tested, and the TGI [3] was greater than 100 µM, the TGI [1] was greater than 100 µM and the TGI [2] was greater than 100 µM.

CCCCCCCC/C=C\CCCCCCCC(=O)NCCN(CCN)C(=O)CCCCCCC/C=C\CCCCCCCC was tested, and the TGI [3] was greater than 100 µM and the TGI [2] was greater than 100 µM.

Work on CC(C)=CC(=O)Cc1nc2cc(C)c(C)cc2[nH]c1=O yielded a TGI [3] greater than 100 µM and a TGI [2] greater than 100 µM.

For COc1ccc(/C(C)=N/OC(=O)c2c(-c3ccccc3Cl)noc2C)cc1CN1CCOCC1, the TGI [4] was 46.3 µM, the TGI [5] was 66.5 µM and the TGI [6] was 39.9 µM. For the same molecule, the TGI [7] was 98.1 µM.

With O=C(Nc1nc2ncn(CC(COc3ccccc3)OC(=O)c3ccccc3)c2c(=O)[nH]1)c1ccccc1 (configuration not stated) the TGI [1] was greater than 100 µM and the TGI [2] was greater than 100 µM.

CC1=C(C(=O)Nc2ccc(Cl)c(Cl)c2)C(c2ccco2)C(C(=O)Nc2ccc(Cl)c(Cl)c2)=C(C)N1 showed a TGI [3] of 24.2 µM, a TGI [1] of 7.94 µM and a TGI [2] of 24.9 µM.

CCN(CC)C(=O)COc1ccc(Br)cc1Br gave a TGI [3] greater than 100 µM and a TGI [2] greater than 100 µM.

CC1OC(OCC2COC(O)(Oc3c(-c4ccc(O)c(O)c4)oc4cc(O)cc(O)c4c3=O)C(O)C2O)C(O)C(O)C1O (configuration not stated) was tested, and the TGI [3] was greater than 100 µM, the TGI [1] was greater than 100 µM and the TGI [2] was greater than 100 µM.

With CC1=C(C(=O)NCc2ccccc2)C(c2ccccc2[N+](=O)[O-])C(C(=O)NCc2ccccc2)=C(C)N1 the TGI [3] was 23.1 µM, the TGI [1] was 31.9 µM and the TGI [2] was 23.9 µM.

Molecule CC(=O)O[C@H]1C(=O)[C@@]2(C)C(C(OC(=O)c3ccccc3)[C@]3(O)CC(OC(=O)C(O)C(NC(=O)c4ccc(C)cc4)c4ccccc4)C(C)=C1C3(C)C)[C@]1(OC(C)=O)CO[C@@H]1C[C@@H]2O (some centres not stated) has a TGI [3] greater than 25 µM, a TGI [1] of 0.0201 µM and a TGI [2] of 4.23 µM.

Molecule Nc1nc2nc[nH]c2c(=O)[nH]1 has a TGI [3] greater than 100 µM, a TGI [1] greater than 100 µM and a TGI [2] greater than 100 µM.

Molecule N#CCCN(c1ccc(-c2nnc(NC(=O)CNNC(=O)CC(=O)Nc3ccccc3)s2)cc1)S(=O)(=O)c1ccccc1 has a TGI [3] greater than 100 µM, a TGI [1] greater than 100 µM and a TGI [2] greater than 100 µM.

For O=C(NO)C12C3C4C1C1C2C3C41C(=O)NO (configuration not stated), the TGI [3] was greater than 100 µM and the TGI [2] was greater than 100 µM.

O=[N+]([O-])c1nccn1COCCF was tested, and the TGI [3] was greater than 100 µM, the TGI [1] was greater than 100 µM and the TGI [2] was greater than 100 µM.

COc1ccc([C@H]2CC(=O)NCCCCN2)cc1 gave a TGI [3] greater than 100 µM, a TGI [1] greater than 100 µM and a TGI [2] greater than 100 µM.

NCCNC(=S)S was tested, and the TGI [4] was greater than 100 µM, the TGI [5] was greater than 100 µM and the TGI [6] was greater than 100 µM. For the same molecule, the TGI [7] was greater than 100 µM.

For O=C1OC(O)C(Oc2ccc(Cl)cc2)=C1Cl (configuration not stated), the TGI [3] was greater than 100 µM and the TGI [2] was greater than 100 µM.

For CO[C@@H]1[C@H](OC(=O)NC(=O)CCl)CC[C@]2(CO2)[C@H]1[C@@]1(C)O[C@@H]1CC=C(C)C, the GI50 [3] was 6.1 µM, the TGI [3] was 20.9 µM and the GI50 [4] was 10.7 µM. For the same molecule, the TGI [4] was 44.4 µM and 180 µM, the GI50 [5] was 4.28 µM and the TGI [5] was 38.1 µM and 12.7 µM. For the same molecule, the TGI [6] was 27.3 µM, the GI50 [7] was 25.3 µM and the TGI [7] was 28.6 µM and 57.2 µM. The GI50 [2] was 1.17 µM and the TGI [2] was 24.2 µM.

C[C@@]12CCC(=O)C=C1CC[C@H]1C2=CC[C@]2(C)C1CC[C@@]2(C)O (some centres not stated) was tested, and the TGI [4] was greater than 100 µM, the TGI [5] was greater than 100 µM and the TGI [6] was greater than 100 µM. For the same molecule, the TGI [7] was greater than 100 µM.

COC(=O)[C@]1(C)CCC[C@@]2(C)C1CCC1=CC3(C(C)C)CCC12OO3 (some centres not stated) was tested, and the TGI [3] was greater than 100 µM and the TGI [2] was greater than 100 µM.

Cc1cc(O)cc2c1O[C@@]1(C)CCC3[C@@]4(C)CC[C@H](O)C(C)(C)C4CC[C@@]3(C)[C@H]1C2 (some centres not stated) showed a TGI [3] of 7.64 µM and a TGI [2] of 25 µM.

For O=C(COc1ccccc1)NS(=O)(=O)c1ccccc1, the TGI [3] was greater than 100 µM and the TGI [2] was greater than 100 µM.

NC1=N/C(=C2/CCNC(=O)c3[nH]c(Br)cc32)C(=O)N1 was tested, and the TGI [4] was greater than 100 µM, the TGI [8] was greater than 100 µM and the TGI [1] was greater than 100 µM. It also gave a TGI [5] of 16.2 µM, a TGI [6] greater than 43.3 µM and a TGI [7] greater than 100 µM. For the same molecule, the TGI [9] was 86.1 µM, the TGI [10] was greater than 100 µM and the TGI [2] was greater than 100 µM.

With O=C(/C=C\c1ccc(Cl)cc1Cl)c1cccs1 the TGI [4] was 41.1 µM, the TGI [5] was 40.5 µM and the TGI [6] was 35.8 µM. The TGI [7] was 35.2 µM.

Molecule NCc1nnn(Cc2ccccc2)c1N has a TGI [4] greater than 100 µM, a TGI [5] greater than 100 µM and a TGI [6] greater than 100 µM. For the same molecule, the TGI [7] was greater than 100 µM.

Molecule Nc1ccn(C2CC(CO)C(O)C2O)c(=O)n1 (configuration not stated) has a TGI [3] greater than 57.7 µM and a TGI [2] greater than 57.7 µM.

For CC(C)(C)C(=O)C1CC(=O)c2ccccc2C1=O (configuration not stated), the TGI [1] was greater than 100 µM and the TGI [2] was greater than 100 µM.

Cc1ccccc1CN1CC=c2ccccc2=N1 gave a TGI [1] greater than 100 µM and a TGI [2] greater than 100 µM.

C1=Cc2nc1c(-c1ccncc1)c1ccc([n-]1)c(-c1ccncc1)c1nc(c(-c3ccncc3)c3ccc([n-]3)c2-c2ccncc2)C=C1.[Zn+2] showed a TGI [3] greater than 100 µM, a TGI [1] greater than 100 µM and a TGI [2] greater than 100 µM.

Work on COc1ccc2nc3ccccc3c(NCCCCCCN(C)CCCl)c2c1 yielded a TGI [3] of 1.76 µM, a TGI [1] of 0.845 µM and a TGI [2] of 1.65 µM.

CC(C)OP(=O)(OC(C)C)C(=Nc1ccccc1)NNc1ccc([N+](=O)[O-])cc1 gave a TGI [3] greater than 100 µM, a TGI [1] of 61 µM and a TGI [2] greater than 100 µM.
